Counter-ions that a name gives are not always drawn. The source made the active and inactive calls.
Experiments:
P388 = assay: cells; format: functional; conditions: Mus musculus
SN12K1 = assay: cells; format: functional; conditions: Homo sapiens
P388/ADR = assay: cells; format: functional; conditions: Mus musculus
[1] = inhibitors of clade B AD8 Env fusion, dose response, cell-based, cherry-pick (AID 652062); format: functional;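 note: luciferase signal from cell-cell fusion driven by HIV-1 clade B AD8 Env; potency is for inhibitors of fusion seen as a drop in luminescence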
[2] = inhibitors of HIV Env-driven cell fusion, dose response, cherry-pick (AID 652057); format: functional, cell-based
[3] = target: T1, Rac GTPase-activating protein 1 (Homo sapiens, UniProt Q9H0H5); assay: MgcRacGAP GTPase-activating activity inhibitors, confirmation, biochemical, ADP Hunter fluorescence, primary and confirmatory (AID 624330); format: functional
T1 sequence (Q9H0H5 whole entry): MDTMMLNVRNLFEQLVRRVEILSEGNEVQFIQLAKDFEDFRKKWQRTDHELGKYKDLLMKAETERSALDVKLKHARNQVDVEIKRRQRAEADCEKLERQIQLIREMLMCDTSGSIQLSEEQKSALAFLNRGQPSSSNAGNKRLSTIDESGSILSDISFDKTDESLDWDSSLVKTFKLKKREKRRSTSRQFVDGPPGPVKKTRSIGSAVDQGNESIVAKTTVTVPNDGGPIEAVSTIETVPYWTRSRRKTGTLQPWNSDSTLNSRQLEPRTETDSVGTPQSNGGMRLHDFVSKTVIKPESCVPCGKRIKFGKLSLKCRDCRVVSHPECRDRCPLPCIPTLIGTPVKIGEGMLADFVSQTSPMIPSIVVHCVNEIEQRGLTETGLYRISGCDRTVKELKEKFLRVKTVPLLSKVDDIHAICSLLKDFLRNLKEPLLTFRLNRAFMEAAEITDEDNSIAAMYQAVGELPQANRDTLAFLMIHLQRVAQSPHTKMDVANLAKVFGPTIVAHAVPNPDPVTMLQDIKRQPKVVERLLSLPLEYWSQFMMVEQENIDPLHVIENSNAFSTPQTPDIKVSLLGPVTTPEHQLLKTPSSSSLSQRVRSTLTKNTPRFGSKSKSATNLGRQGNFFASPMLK

[4] = CEM21 lymphoblast cell cytotoxicity, dose response, cytotoxicity control for viral fusion inhibitor project, CellTiter-Glo luminescence, cherry-picked (AID 652042); format: functional, cell-based;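 note: potency for signal decrease meaning cytotoxicity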
Nonstructural protein 1 = Nonstructural protein 1 (Influenza A virus, UniProt Q194T2); format: functional, Influenza A virus (A/California/07/2009(H1N1))
HEK293 [5] = assay: inhibitors of LMP1-driven NF-kB reporter, dose response, cell-based, HEK293, luciferase, cherry-pick (AID 588343); format: functional; conditions: Homo sapiens
HEK293 [6] = assay: NOD1 signaling inhibitors, primary screen, cell-based, luminescence, uHTS (AID 1578); format: functional; conditions: Homo sapiens
HEK293 [7] = assay: cells; format: functional, cell-based; conditions: Homo sapiens
HEK293 [8] = assay: NOD2 signaling inhibitors in MDP-stimulated cells, cell-based, uHTS, luminescence (AID 2001); format: functional; conditions: Homo sapiens
HEK293 [9] = assay: cells; format: functional, cell-based; conditions: Homo sapiens; remark: listed apart in the source
[10] = target: T2, Carboxy-terminal domain RNA polymerase II polypeptide A small phosphatase 1 (Homo sapiens, UniProt Q9GZU7); assay: inhibitors of CTDSP1, concentration-response testing, biochemical assay, absorbance-based, actives from ultra-high-throughput screening (AID 540297); format: functional
T2 sequence (Q9GZU7 whole entry): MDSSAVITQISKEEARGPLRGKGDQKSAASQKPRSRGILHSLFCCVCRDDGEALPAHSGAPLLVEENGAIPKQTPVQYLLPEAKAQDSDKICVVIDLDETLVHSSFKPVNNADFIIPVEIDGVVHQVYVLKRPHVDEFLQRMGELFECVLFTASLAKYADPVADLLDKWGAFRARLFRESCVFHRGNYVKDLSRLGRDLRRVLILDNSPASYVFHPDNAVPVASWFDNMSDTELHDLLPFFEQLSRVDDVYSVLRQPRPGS

[11] = target: T3, E3 ubiquitin-protein ligase XIAP (Homo sapiens, UniProt P98170); assay: XIAP antagonists, biochemical, IAP family, fluorescence polarization (AID 1018); format: functional
[12] = target: T3, E3 ubiquitin-protein ligase XIAP; assay: Counter Screen using XIAP-Bir3 for Chemical Antagonists of Bir1/2 domains of IAP-family anti-apoptotic proteins. [Related pubchem assays (depositor defined):AID1018, AID1449, AID1514, AID1638, AID1749, AID1750, AID488957, AID488963]
Protein Wnt-3a = Protein Wnt-3a (Mus musculus, UniProt P27467); assay: Wnt3a-driven reporter signaling inhibition, dose response, selectivity assay for Gli-SUFU antagonist project, Wnt-LIGHT cells, luminescence (AID 651570); format: functional; conditions: read-out: IC50_Mean;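 note: Wnt-LIGHT reporter cells stimulated with conditioned medium from Wnt3a-producing cells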
[13] = HEp-2 cell cytotoxicity, dose response, cytotoxicity control for RSV inhibitor project, HTS (AID 2410); format: functional; conditions: human respiratory syncytial virus
[14] = AlphaScreen signal interference compounds, dose response, artefact control for ARNT-TACC3 interaction inhibitor project, biochemical, luminescence, cherry-pick (AID 651705); format: functional;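 note: AlphaScreen bead proximity signal that flags compounds interfering with the detection technology; potency reflects signal decrease which marks the compound as an assay artifact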
[15] = target: T4, High affinity choline transporter 1 (Homo sapiens, UniProt Q9GZV3); assay: CHT inhibitors, dose response, cell-based, 5-point CRC, membrane potential dye (AID 504840); format: functional
T4 sequence (Q9GZV3 whole entry): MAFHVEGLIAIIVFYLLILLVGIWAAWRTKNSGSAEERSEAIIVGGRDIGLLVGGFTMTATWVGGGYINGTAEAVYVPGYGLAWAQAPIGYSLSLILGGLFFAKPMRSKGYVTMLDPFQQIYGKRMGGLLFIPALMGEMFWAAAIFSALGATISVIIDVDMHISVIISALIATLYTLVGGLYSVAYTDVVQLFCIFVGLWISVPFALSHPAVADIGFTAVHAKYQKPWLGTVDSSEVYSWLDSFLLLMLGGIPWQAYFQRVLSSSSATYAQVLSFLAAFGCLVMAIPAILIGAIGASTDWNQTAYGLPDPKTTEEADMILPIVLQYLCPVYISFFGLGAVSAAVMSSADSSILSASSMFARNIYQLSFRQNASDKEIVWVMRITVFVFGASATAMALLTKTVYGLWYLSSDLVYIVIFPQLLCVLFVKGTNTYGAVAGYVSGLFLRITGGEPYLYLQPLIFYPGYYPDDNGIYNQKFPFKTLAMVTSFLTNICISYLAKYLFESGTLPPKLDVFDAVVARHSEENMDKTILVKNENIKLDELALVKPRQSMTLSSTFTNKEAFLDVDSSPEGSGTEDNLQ

Cytochrome P450 3A4 = Cytochrome P450 3A4 (Homo sapiens, UniProt P08684); conditions: Potency;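 note: confirmatory qHTS run detecting inhibitors and substrates of CYP3A4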
INS1 = assay: beta cell apoptosis inhibitors, cytokine rescue, dose response, luminescence, retest (AID 449756); format: functional, cell-based; conditions: Rattus norvegicus;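 note: cell death triggered by IL-1 beta plus TNF-alpha plus IFN-gamma mixture; protective hits raise ATP signal compared with cytokine alone wells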
Estrogen receptor = target: T5, Estrogen receptor (Homo sapiens, UniProt P03372);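 note: potency for inhibiting coactivator peptide recruitment to the receptor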
T5 sequence (P03372 whole entry): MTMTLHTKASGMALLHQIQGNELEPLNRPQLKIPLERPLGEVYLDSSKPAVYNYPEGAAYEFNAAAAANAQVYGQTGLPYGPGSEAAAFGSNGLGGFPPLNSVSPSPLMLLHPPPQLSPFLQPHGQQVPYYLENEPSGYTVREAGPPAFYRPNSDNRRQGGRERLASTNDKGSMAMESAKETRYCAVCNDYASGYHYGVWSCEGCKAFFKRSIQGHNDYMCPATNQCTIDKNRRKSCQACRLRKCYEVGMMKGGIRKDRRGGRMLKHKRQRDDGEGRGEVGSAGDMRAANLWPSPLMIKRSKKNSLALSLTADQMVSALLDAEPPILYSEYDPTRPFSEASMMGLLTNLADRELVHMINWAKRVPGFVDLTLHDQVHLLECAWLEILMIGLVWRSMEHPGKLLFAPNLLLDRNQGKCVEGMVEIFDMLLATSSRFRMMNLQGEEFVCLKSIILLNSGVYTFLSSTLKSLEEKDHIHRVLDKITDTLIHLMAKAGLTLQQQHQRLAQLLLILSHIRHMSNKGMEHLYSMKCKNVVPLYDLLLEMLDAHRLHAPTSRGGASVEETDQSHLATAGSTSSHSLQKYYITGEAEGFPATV

H9c2 = assay: cells; format: functional, cell-based; conditions: Rattus norvegicus, H9c2, Myocardium
[16] = microbe, parasite or virus in culture; format: functional; conditions: Mycobacterium tuberculosis
[17] = cytotoxicity toward NIH3T3 fibroblasts, dose response, counter-screen, cell-based, ATP luminescence, mouse fibroblasts (AID 2010); format: functional;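 note: cells exposed to compound for about 90 hours before reading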
[18] = inhibitors of intracellular T. cruzi replication, confirmation, NIH3T3 host cells, beta-gal luminescence (AID 2044); format: functional, cell-based;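 note: intracellular parasites grown in NIH/3T3 mouse fibroblasts as host cells; luminescent beta-galactosidase reporter signal from transgenic T. cruzi replicating inside host cells; inhibitors lower the luminescence signal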
SUMO-activating enzyme = SUMO-activating enzyme (Homo sapiens, UniProt Q9UBT2); assay: SUMOylation inhibitor hit validation, confirmation, SUMOylation inhibitor project, biochemical, AlphaScreen (AID 2018); format: functional
Cytochrome P450 2C9 = Cytochrome P450 2C9 (Homo sapiens, UniProt P11712)
Sequence of Cytochrome P450 2C9 (P11712 whole entry): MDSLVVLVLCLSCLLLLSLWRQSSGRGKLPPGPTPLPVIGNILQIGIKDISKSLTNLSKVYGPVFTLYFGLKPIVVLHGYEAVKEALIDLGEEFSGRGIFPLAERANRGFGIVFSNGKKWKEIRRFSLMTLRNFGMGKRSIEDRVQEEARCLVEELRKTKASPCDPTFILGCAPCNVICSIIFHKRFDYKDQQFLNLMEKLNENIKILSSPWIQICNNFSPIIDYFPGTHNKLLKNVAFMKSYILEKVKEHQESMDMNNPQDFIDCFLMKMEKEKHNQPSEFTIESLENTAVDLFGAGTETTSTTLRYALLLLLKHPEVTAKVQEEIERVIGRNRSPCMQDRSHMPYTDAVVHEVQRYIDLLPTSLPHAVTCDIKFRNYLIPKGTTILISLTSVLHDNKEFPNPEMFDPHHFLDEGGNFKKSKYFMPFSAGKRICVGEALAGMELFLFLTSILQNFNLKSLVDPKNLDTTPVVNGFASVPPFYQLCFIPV

T3 sequence (P98170 whole entry): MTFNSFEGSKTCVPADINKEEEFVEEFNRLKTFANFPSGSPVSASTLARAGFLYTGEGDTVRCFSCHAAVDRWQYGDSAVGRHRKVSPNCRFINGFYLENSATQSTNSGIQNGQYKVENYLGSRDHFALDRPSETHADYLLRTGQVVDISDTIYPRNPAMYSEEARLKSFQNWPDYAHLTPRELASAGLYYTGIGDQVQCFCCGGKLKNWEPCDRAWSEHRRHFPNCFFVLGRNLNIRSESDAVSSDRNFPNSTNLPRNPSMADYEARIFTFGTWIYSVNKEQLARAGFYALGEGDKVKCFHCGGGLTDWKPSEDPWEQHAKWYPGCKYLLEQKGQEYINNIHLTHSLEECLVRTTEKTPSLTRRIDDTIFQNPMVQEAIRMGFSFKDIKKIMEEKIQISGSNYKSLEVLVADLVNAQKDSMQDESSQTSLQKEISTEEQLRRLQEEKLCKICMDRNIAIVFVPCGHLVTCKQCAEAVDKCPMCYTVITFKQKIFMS
Sequence of Protein Wnt-3a (P27467 whole entry): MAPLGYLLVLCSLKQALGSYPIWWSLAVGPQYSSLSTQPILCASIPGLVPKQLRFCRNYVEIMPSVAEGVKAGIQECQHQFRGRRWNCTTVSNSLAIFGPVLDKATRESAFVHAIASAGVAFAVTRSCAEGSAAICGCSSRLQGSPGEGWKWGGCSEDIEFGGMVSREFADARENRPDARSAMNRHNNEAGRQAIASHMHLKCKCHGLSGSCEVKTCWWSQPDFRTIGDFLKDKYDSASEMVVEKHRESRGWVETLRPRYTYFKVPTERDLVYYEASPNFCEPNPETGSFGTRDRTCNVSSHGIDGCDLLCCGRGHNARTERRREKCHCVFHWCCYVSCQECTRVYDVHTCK
Sequence of Cytochrome P450 3A4 (P08684 whole entry): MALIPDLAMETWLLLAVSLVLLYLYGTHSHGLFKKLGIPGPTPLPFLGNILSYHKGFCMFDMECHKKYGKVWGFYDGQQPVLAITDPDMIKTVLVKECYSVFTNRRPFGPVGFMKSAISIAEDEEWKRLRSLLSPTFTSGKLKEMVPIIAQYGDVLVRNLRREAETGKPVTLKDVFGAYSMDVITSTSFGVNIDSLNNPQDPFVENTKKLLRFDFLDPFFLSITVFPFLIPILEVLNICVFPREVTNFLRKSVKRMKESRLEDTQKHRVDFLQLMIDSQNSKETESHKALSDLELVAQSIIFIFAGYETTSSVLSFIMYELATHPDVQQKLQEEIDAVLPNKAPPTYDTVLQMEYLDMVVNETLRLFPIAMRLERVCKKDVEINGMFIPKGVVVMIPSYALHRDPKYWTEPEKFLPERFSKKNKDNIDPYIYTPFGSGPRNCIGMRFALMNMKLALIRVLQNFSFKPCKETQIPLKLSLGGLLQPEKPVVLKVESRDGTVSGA
Sequence of Nonstructural protein 1 (Q194T2 whole entry): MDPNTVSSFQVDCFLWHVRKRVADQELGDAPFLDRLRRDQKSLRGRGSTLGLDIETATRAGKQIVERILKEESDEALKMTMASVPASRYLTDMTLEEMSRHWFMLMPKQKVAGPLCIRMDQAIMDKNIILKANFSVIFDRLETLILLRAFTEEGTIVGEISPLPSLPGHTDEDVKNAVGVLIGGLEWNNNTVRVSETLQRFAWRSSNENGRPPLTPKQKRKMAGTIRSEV
Sequence of SUMO-activating enzyme (Q9UBE0 whole entry): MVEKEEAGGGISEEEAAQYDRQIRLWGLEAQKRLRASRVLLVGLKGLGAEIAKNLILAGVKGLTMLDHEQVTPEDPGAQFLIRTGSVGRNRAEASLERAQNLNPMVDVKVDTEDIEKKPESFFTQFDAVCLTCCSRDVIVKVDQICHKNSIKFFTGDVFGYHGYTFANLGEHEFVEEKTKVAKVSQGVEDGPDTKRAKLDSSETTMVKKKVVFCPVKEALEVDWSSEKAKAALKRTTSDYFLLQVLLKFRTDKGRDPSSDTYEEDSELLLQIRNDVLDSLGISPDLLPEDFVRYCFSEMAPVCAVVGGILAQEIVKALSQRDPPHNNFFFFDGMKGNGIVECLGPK
Sequence of SUMO-activating enzyme (Q9UBT2 whole entry): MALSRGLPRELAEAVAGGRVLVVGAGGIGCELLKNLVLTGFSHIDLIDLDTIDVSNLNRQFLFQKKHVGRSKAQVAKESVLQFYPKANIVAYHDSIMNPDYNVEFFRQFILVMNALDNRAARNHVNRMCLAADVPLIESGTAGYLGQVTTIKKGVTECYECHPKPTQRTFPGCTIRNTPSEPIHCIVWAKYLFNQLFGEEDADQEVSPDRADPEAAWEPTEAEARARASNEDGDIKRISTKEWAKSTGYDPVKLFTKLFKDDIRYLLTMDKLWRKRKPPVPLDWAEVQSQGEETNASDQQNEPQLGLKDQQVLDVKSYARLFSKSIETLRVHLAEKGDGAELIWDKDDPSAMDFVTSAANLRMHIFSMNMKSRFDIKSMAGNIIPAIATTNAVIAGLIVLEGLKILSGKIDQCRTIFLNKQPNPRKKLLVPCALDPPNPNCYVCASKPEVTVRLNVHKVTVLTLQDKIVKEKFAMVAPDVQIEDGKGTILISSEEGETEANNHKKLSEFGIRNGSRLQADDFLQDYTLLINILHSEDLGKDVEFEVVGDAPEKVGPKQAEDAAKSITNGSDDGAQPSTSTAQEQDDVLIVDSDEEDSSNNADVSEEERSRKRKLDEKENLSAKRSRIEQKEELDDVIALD

## NCC(Cl)C(O)c1c[nH]c(N)n1 (stereo unspecified)
P388
  GI50: 0.0353 µM (active)
SN12K1
  GI50: 0.507 µM (active)
P388/ADR
  GI50: 0.232 µM (active)

## Oc1ccc(C=NNc2ccccn2)c(O)c1
[1]
  AC50: 5.5 µM (active)
[2]
  AC50: 8.53 µM (active)
[3]
  IC50: 27 µM (active)
[4]
  AC50: 8.15 µM (active)
Nonstructural protein 1
  IC50: 2.71 µM (active)
HEK293 [5]
  AC50: 10.4 µM (active)

## COc1ccc(NS(=O)(=O)c2ccc3oc(SC(C)C(N)=O)nc3c2)cc1 (stereo unspecified)
HEK293 [6]
  EC50: 6.14 µM (active)
HEK293 [7]
  IC50: > 20 µM (inactive)
HEK293 [8]
  IC50: 20 µM (inactive)
HEK293 [9]
  IC50: > 20 µM (inactive)

## COc1cc(C2c3cc4c(cc3[C@@H](Nc3cccc(CO)c3)C3COC(=O)[C@H]23)OCO4)cc(OC)c1O (stereo partly specified)
P388
  GI50: < 0.01 µM (active)
SN12K1
  GI50: 0.0925 µM (active)
P388/ADR
  GI50: 0.124 µM (active)

## C/C(CC(=O)NC1CCCCC1)=N\NC(=O)Cc1ccc(-c2ccccc2)cc1
[10]
  IC50: 7.87 µM (active)

## O=C(Nc1ccccc1-c1nnn(CC(=O)N2CCCc3ccccc32)n1)c1ccc(Cl)cc1
[11]
  IC50: > 100 µM (not active)
[12]
  IC50: > 100 µM (inactive)

## COc1ccccc1CCNC(=O)C(=O)NCCC1CCCCN1S(=O)(=O)c1cccs1 (stereo unspecified)
Protein Wnt-3a
  IC50: 12.3 µM (active)
[13]
  CC50: 36.7 µM (active)

## CC1CCCN(C(C(=O)Nc2ccc(C(C)C)cc2)c2ccc3c(c2)OCO3)C1 (stereo unspecified)
[11]
  IC50: > 100 µM (not active)
[12]
  IC50: > 100 µM (inactive)

## COc1cc(OC)cc(C(=O)Nc2nnc(-c3cccnc3)o2)c1
[14]
  AC50: 97.6 µM (active)

## Cc1cccc(CCNC(=O)C2CCCN(c3ncnc4c3nc3n4CCCCC3)C2)c1 (stereo unspecified)
[15]
  IC50: 11.8 µM (active)

## COC(=O)[C@H]1C[C@H]2CC[C@H](O)C[C@H]2N1CC1CC1
Cytochrome P450 3A4
  AC50: 25.1 µM (inconclusive)

## O=C(N/N=C/c1ccc2c(c1)OCO2)c1cc(-c2ccco2)nc2ccccc12
[10]
  IC50: 10.8 µM (active)

## O=C(NC(Cc1ccc(Cl)cc1)C(=O)O)c1ccc(I)cc1 (stereo unspecified)
P388
  GI50: 64.7 µM (inactive)
SN12K1
  GI50: > 100 µM (inactive)
P388/ADR
  GI50: 54.8 µM (inactive)

## S=C(Nc1ccccc1)N1CCC(Cc2ccccc2)CC1
Protein Wnt-3a
  IC50: 18 µM (active)

## CCOc1ncccc1C(=O)OCC(=O)Nc1nnc(-c2ccccc2)o1
[14]
  AC50: 107 µM (active)

## COc1ccc(S(=O)(=O)N2CCOC2CNC(=O)C(=O)NCCc2c[nH]c3ccccc23)cc1 (stereo unspecified)
[11]
  IC50: > 100 µM (not active)
[12]
  IC50: > 100 µM (inactive)

## CC(C)=CC(=O)OC1C2C(C)=CC(=O)C(O)C2(C)C2C3(O)OCC24C(CC(=O)OC14)C(C)C3O (stereo unspecified)
P388
  GI50: 0.000946 µM (active)
SN12K1
  GI50: 0.02 µM (active)
P388/ADR
  GI50: 0.102 µM (active)

## COc1cc(/C=C(/C(=O)c2cccs2)c2nc3ccccc3[nH]2)ccc1O
HEK293 [6]
  EC50: 12.1 µM (active)
HEK293 [7]
  IC50: 2.96 µM (active)
HEK293 [8]
  IC50: 4.02 µM (active)
HEK293 [9]
  IC50: > 20 µM (inactive)
INS1
  AC50: 18 µM (active)

## Cc1cc(-c2nn3c(-c4ccccc4)nnc3s2)c2ccccc2n1
Estrogen receptor
  IC50: 21.6 µM (active)
[11]
  IC50: > 100 µM (not active)
[12]
  IC50: > 100 µM (inactive)
H9c2
  IC50: > 79 µM (inactive)

## O=C(Cn1cnc2c(nnn2-c2ccccc2)c1=O)NCc1ccc(F)cc1
[10]
  IC50: 6.76 µM (active)

## CCCCN1CCCCC1C(=O)Nc1c(C)cccc1C (stereo unspecified) [BUPIVACAINE HYDROCHLORIDE]
Cytochrome P450 3A4
  AC50: 31.6 µM (inconclusive)

## CC1CCCCC1NS(=O)(=O)c1ccc(S(=O)(=O)NCc2ccncc2)cc1 (stereo unspecified)
Protein Wnt-3a
  IC50: 1.43 µM (active)
INS1
  AC50: 3.4 µM (active)

## c1ccc(CCN2CCN(c3ncnc4c3cnn4-c3ccccc3)CC2)cc1
[16]
  CC50: > 40 µM (active)
[17]
  EC50: > 30 µM (not active)
[18]
  EC50: 2.38 µM (active)
[15]
  IC50: 30.2 µM (active)

## CC(=O)Nc1ccc(NC(=O)Cn2c(-c3ccc(F)cc3)cnc2SCC(=O)Nc2c(C)cccc2C)cc1
SUMO-activating enzyme
  IC50: 61.6 µM (active)
Cytochrome P450 2C9
  AC50: 17.8 µM (inconclusive)

From ChEMBL document CHEMBL1201862, “PubChem BioAssay data set” (2004)
